In patent publication US7214495B2, “Screening method” (Takeda Pharmaceutical Company Limited, priority 2002, dated 2007):

Experiments:
[1] = tested on: mouse insulinoma MIN6 cells; assay: Insulin secretion from MIN6 cells with free fatty acid-BSA mixture (RIA); format: cell-based; details: 300 μM to 1000 μM; fatty acid-BSA 4:1; 11 mM glucose; 90 (or 60) minutes
Description: The MIN6 cells were cultured in DMEM (high glucose, Invitrogen) containing 15% FCS (Trace Scientific Ltd.), 55 μM 2-mercaptoethanol, 100 U/ml penicillin and 100 μg/ml streptomycin, unless otherwise indicated. MIN6 cells were plated in a 96-well plate in 10^5 cells/well, followed by incubation at 37° C. for 3 days in a CO2 incubator adjusted to a concentration of 5% CO2. The medium was replaced by RPMI1640 (glucose free, Invitrogen) containing 10% FCS (Trace Scientific Ltd.), 5.5 mM glucose, 100 U/ml penicillin and 100 μg/ml streptomycin, followed by incubation for further 24 hours. After the medium was removed by suction, a solution mixture of free fatty acid-bovine serum albumin (BSA) (in a molar ratio of 4:1) diluted with RPMI1640 (glucose free, Invitrogen) containing 10% FCS (Trace Scientific Ltd.), 11 mM glucose, 100 U/ml penicillin and 100 μg/ml streptomycin was added to the cells, followed by reacting in a CO2 incubator adjusted to a 5% CO2 concentration at 37° C. for 90 minutes (or 60 minutes). After the reaction, the 96-well plate was centrifuged at 1500 rpm for 5 minutes and the culture supernatant was then recovered. The amount of insulin secreted into the culture supernatant was determined by radioimmunoassay (RIA) using the rat insulin RIA system (Amersham Pharmacia).

[2] = target: T1, human GPR40 (Homo sapiens, UniProt O14842); assay: EC50 by FLIPR calcium assay in CHO cells stably expressing human GPR40; format: cell-based; details: intracellular calcium, FLIPR, stable CHO line; for EC50: read-out: EC50 Human GPR40
T1 construct: The resulting fragment (ca. 1 kb) was introduced into vector pAKKO-111, which was used for transfection of CHO cells; expressed in transfected cells
T1 sequence (O14842 whole entry, the tested form may be a part): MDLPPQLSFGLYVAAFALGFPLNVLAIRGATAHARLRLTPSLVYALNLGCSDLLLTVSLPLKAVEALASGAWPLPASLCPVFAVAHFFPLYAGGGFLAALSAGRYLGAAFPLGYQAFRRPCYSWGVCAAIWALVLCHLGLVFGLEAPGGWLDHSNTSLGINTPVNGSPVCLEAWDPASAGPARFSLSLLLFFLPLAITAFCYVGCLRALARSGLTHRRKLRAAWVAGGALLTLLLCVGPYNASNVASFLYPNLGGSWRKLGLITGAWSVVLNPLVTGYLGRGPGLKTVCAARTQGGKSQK
Description: (§1) For determination of EC50 values, the CHO cell lines in which human-, mouse- and rat-derived GPR40 was stably expressed were used. Unless otherwise indicated, these CHO cell lines were incubated in α-MEM medium (Invitrogen) supplemented with 10% fetal calf serum (Invitrogen).
(§2) On the day before assay, the cells incubated to almost confluent stage were rinsed with PBS (Invitrogen), then scraped in 0.05% trypsin-EDTA solution (Invitrogen) and recovered by centrifugal operation. The number of the cells obtained was counted and diluted so as to contain 3×10^5 cells/1 mL of the medium. The dilution was dispensed in a Black welled 96-well plate (Coster) in 100 μL/well, followed by incubation overnight in a CO2 incubator. To the thus prepared CHO cells, various test samples were added and the changes in intracellular calcium level in this case were measured using FLIPR (Molecular Device). In order to determine the changes in the intracellular calcium ion level on FLIPR, the cells were pre-treated by the following procedures.
(§3) First, for the purpose of adding a fluorescent dye Fluo-3 AM (DOJIN) to the cells or washing the cells immediately before the FLIPR assay, an assay buffer was prepared. A solution obtained by adding 20 mL of 1M HEPES (pH 7.4) (DOJIN) to 1000 mL of HBSS (Invitrogen) was prepared (hereinafter HBSS/HEPES solution), to which 10 mL of a solution mixture obtained by dissolving 710 mg of Probenecid (Sigma) in 5 mL of 1N NaOH and further adding 5 mL of HBSS/HEPES solution was added. The resulting solution was used as the assay buffer. Next, 50 μg of Fluo-3AM was dissolved in 21 μL of DMSO (Wako) and an equal volume of 20% Pulronic acid (Molecular Probes) was added to and mixed with the solution. The mixture was then added to 10.6 mL of the assay buffer supplemented with 105 μL of fetal calf serum to prepare a fluorescent dye solution. […], the medium for the CHO cells again plated in a Black welled 96-well plate was removed. Immediately thereafter, the fluorescent dye solution was dispensed in 100 μL each/well and the cells were incubated in a CO2 incubator for an hour so that the fluorescent dye was taken up into the cells. The cells after the incubation was washed with the assay buffer described above and set on FLIPR. […] After the pre-treatment above was made, the changes in intracellular calcium level after the addition of various test samples were measured on FLIPR.

[3] = target: T2, Mouse GPR40 (Mus musculus, UniProt Q76JU9); assay: EC50 by FLIPR calcium assay in CHO cells stably expressing mouse GPR40; format: cell-based; details: intracellular calcium, FLIPR, stable CHO line
T2 construct: expressed in transfected cells
T2 sequence (Q76JU9 whole entry): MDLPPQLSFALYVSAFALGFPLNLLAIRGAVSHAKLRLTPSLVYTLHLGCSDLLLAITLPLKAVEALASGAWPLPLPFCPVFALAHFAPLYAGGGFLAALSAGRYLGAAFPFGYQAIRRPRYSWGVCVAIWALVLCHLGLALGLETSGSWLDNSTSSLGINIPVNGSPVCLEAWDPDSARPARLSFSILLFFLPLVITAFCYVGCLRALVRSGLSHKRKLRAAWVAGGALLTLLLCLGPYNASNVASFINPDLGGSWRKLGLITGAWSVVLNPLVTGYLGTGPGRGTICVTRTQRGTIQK
Description: as §1, §2, §3

[4] = target: T3, Rat GPR40 (Rattus norvegicus, UniProt Q8K3T4); assay: EC50 by FLIPR calcium assay in CHO cells stably expressing rat GPR40; format: cell-based; details: intracellular calcium, FLIPR, stable CHO line
T3 construct: expressed in transfected cells
T3 sequence (Q8K3T4 whole entry): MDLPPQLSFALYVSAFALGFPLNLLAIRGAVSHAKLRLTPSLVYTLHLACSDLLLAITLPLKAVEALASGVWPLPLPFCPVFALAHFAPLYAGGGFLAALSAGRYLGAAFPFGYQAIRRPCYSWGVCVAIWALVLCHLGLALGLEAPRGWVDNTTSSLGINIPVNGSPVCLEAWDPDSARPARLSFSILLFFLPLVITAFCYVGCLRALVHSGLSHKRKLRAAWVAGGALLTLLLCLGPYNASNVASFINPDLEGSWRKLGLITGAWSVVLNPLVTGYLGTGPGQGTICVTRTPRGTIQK
Description: as §1, §2, §3

[5] = target: T4, human-derived GPR40 (Homo sapiens, UniProt O14842); assay: Intracellular calcium change (FLIPR) in CHO-hGPR40 No. 104, eicosanoids; format: cell-based; details: added in 10^−5 M to 10^−6 M; no response in vector-only control
T4 construct: The DNA fragment encoding human GPR40 was acquired by the following PCR procedures; expressed in transfected cells; host or cells: CHO-K1 (transient, Lipofectamine)
T4 sequence (O14842 whole entry, the tested form may be a part): as the sequence (O14842 whole entry, the tested form may be a part) above
Description: The CHO cell line (CHO-hGPR40 No. 104) wherein human GPR40 prepared by publicly known methods using the human GPR40 expression vector prepared in REFERENCE EXAMPLE 1 was expressed was cultured in MEMα medium (Invitrogen) containing 10% fetal calf serum (Invitrogen), unless otherwise indicated. The cells cultured were rinsed with PBS (Invitrogen), scraped in trypsin/EDTA solution (Invitrogen) and recovered by centrifugal operation. The number of the cells obtained was counted and diluted so as to contain 3×10^4 cells/100 μl. The dilution was dispensed in a Black walled 96-well plate (Costar) in 100 μl/well, followed by incubation overnight in a CO2 incubator. The changes in intracellular calcium level in this case were measured using FLIPR (Molecular Device). In order to determine the changes in the intracellular calcium ion level on FLIPR, the cells were pre-treated by the following procedures. First, for the purpose of adding a fluorescent dye Fluo-3 AM (DOJIN) to the cells or washing the cells immediately before the FLIPR assay, an assay buffer was prepared. A solution obtained by adding 20 ml of 1M HEPES (pH 7.4) (DOJIN) to 1000 ml of HBSS (Invitrogen) was prepared (hereinafter HBSS/HEPES solution), to which 10 ml of a solution mixture obtained by dissolving 710 mg of Probenecid (Sigma) in 5 ml of 1N NaOH and further adding 5 ml of HBSS/HEPES solution was added. The resulting solution was used as the assay buffer. Next, 50 μg of Fluo-3AM was dissolved in 21 μl of DMSO (DOJIN) and an equal volume of 20% Pulronic acid (Molecular Probes) was added to and mixed with the solution. The mixture was then added to 10.6 ml of the assay buffer supplemented with 105 μl of fetal calf serum to prepare a fluorescent dye solution. The medium for the CHO cell line cultured was removed. Immediately thereafter, the fluorescent dye solution was dispensed in 100 μl each/well and the cells were incubated in a CO2 incubator for an hour so that the fluorescent dye was taken up into the cells. The cells after the incubation was washed with the assay buffer described above and set on FLIPR. A test sample added to the CHO cell line was prepared using the assay buffer and set on FLIPR at the same time. After the pre-treatment above was made, the changes in intracellular calcium level after the addition of various test samples were measured on FLIPR. […] It was thus noted that GPR40 was responsive to these compounds as well.

[6] = tested on: mouse pancreatic β cell line MIN6; assay: Insulin secretion from MIN6 in KRBH buffer (immunoassay); format: cell-based; details: 22 mM glucose KRBH, 90 minutes
Description: The mouse pancreatic β cell line MIN6 incubated in a flask was scraped in PBS containing 2.5 mM EDTA and plated in a 96-well plate followed by incubation for 2 days. The medium used was the same as in EXAMPLE 24, namely, 4.5 g/l of glucose-containing Dulbecco's Modified Eagle Medium (DMEM, Invitrogen, Inc.) supplemented with 15% fetal calf serum (ThermoTrace, Inc.), 5.5 μM 2-mercaptethanol (Invitrogen, Inc.), 20 mM HEPES pH 7.3, 100 U/ml penicillin and 100 μg/ml streptomycin. The cells were washed twice with modified Krebs-Ringer bicarbonate buffer (KRBH, 116 mM NaCl, 4.7 mM KCl, 1.2 mM KH2PO4, 1.2 mM MgSO4, 2.5 mM CaCl2, 25 mM NaHCO3, 24 mM HEPES, pH 7.3), followed by preincubation at 37° C. in 5% CO2 for 30 minutes. The fatty acid diluted/prepared using the aforesaid KRBH buffer added with 22 mM glucose was added to the cells after the preincubation, followed by incubation under the conditions of 37° C. in 5% CO2 for 90 minutes. After the incubation, the supernatant of the cells was recovered and stored in a frozen state. The insulin content in the supernatant was assayed using an insulin immunoassay kit commercially available (Amersham Pharmacia, Inc.).
Based on the method of EXAMPLE 25, effects of glucose level when added with fatty acids were examined. The level of glucose, which was added to KRBH upon the addition of fatty acids, was varied to 0, 5.5, 11 and 22 mM to study the effects.
The insulin secretion enhancing activity in the m40i103-introduced MIN6 cells using HVJ Envelope VECTOR KIT GenomONE based on the method of EXAMPLE 18 was examined. The insulin secretion enhancing activity by fatty acids was examined according to the method of EXAMPLE 25.
Based on the procedures of EXAMPLE 25, an essential prerequisite of Ca^2+ ions in the extracellular fluid was examined. In preincubation and incubation with a sample, Ca^2+ ions were removed and 0.1 mM EGTA, which was a reagent for chelating Ca^2+ ions, was further added, and then the insulin secretion enhancing activity by fatty acids was examined in this case.
Based on the method of EXAMPLE 25, effects of Ca^2+ channel blocker (Nifedipine) and MAP kinase inhibitor (PD98059) were examined. In preincubation and incubation with a sample, the insulin secretion enhancing activity by fatty acids was examined when Nifedipine (10 μM) or PD98059 (50 μM) was added.
It is known that fatty acids have the property of binding to albumin. Based on the method of EXAMPLE 25, effects were examined when bovine serum albumin (BSA) was present. In preincubation and incubation with a sample, the insulin secretion activity by fatty acids was examined when 0.1% BSA was added to the buffer.

[7] = tested on: MIN6 cells; assay: FLIPR intracellular calcium assay using MIN6; format: cell-based, mouse; details: 10 μM fatty acid
Description: Mouse pancreatic β cell line MIN6 incubated in a flask was scraped using PBS containing 2.5 mM EDTA and diluted so as to contain 3×10^5 cells/1 mL of the medium. The dilution was dispensed in a Black welled 96-well plate (Coster) in 100 μL/well, followed by incubation in a CO2 incubator for 2 days. The medium used was 4.5 g/l of glucose-containing Dulbecco's Modified Eagle Medium (DMEM, Invitrogen, Inc.) supplemented with 15% fetal calf serum (ThermoTrace, Inc.), 5.5 μM 2-mercaptethanol (Invitrogen, Inc.), 20 mM HEPES pH 7.3, 100 U/ml penicillin and 100 μg/ml streptomycin. To the thus prepared MIN6 cells, various fatty acids (10 μM) were added and the changes in intracellular calcium level in this case were measured using FLIPR (Molecular Device). The changes in the intracellular calcium ion level on FLIPR were assayed in accordance with the procedures described in EXAMPLE 24.

Row | EC50 [2] [µM] | response (increase in intracellular calcium level) of GPR40-expressing CHO cell line [5] | Compound | further results
1 | 1.4 ± 0.3 | specifically responsive | CCCCCC=CCC1OC1CC=CCC=CCCCC(=O)O (mixture of isomers) [11,12-Epoxyeicosatrienoic acid, (±)11(12)-epoxy-5Z,8Z,14Z-eicosatrienoic acid] | 
2 | 1.1 ± 0.4 | specifically responsive | CCCCCC(O)C(O)CC=CCC=CCC=CCCCC(=O)O (mixture of isomers) [14,15-Dihydroxyeicosatrienoic acid, (±)14,15-dihydroxy-5Z,8Z,11Z-eicosatrienoic acid] | 
3 | 6.1 ± 0.2 | specifically responsive | CCCCCC=CCC=CCC1OC1CC=CCCCC(=O)O (mixture of isomers) [8,9-Epoxyeicosatrienoic acid, (±)8(9)-epoxy-5Z,11Z,14Z-eicosatrienoic acid] | 
4 | 7.7 ± 0.2 | specifically responsive | CCCCCC=CCC=CCC=CCC1OC1CCCC(=O)O (mixture of isomers) [5,6-Epoxyeicosatrienoic acid, (±)5(6)-epoxy-8Z,11Z,14Z-eicosatrienoic acid] | 
5 |  | specifically responsive | CCCCCC1OC1C/C=C\C/C=C\C/C=C\CCCC(=O)O (racemic) [14,15-EET, (±)14(15)-epoxy-5Z,8Z,11Z-eicosatrienoic acid] | 
6 |  |  | CCCCC/C=C\C/C=C\CCCCCCCC(=O)OC [Methyl linolate] | insulin secretion enhancing activity [6]: did not show any significant insulin secretion enhancing activity; EC50 Human GPR40 [2]: inactive; EC50 Mouse GPR40 [3]: inactive; EC50 Rat GPR40 [4]: inactive; intracellular Ca^2+ level in MIN6 [7]: not observed

Row | Compound | EC50 [2] [µM] | response (increase in intracellular calcium level) of GPR40-expressing CHO cell line [5] | further results
7 | CCCCCCCCCCCCCCCC(=O)O [Palmitic acid (C16), Palmitic acid] | 6.8 ± 0.5 |  | insulin secretion by MIN6 cells [1]: promoted; EC50 ([3]; read-out: EC50 Mouse GPR40): 4.6 ± 1.2 µM; EC50 ([4]; read-out: EC50 Rat GPR40): 6.6 ± 0.4 µM
